Results as given in article PMC7955127, “Preclinical small molecule WEHI-7326 overcomes drug resistance and elicits response in patient-derived xenograft models of human treatment-refractory tumors” (Cell Death & Disease, 2021).

Experiments:
[1] = system: COG-N-496x neuroblastoma PDX; assay: High-risk neuroblastoma PDX COG-N-496x; format: in vivo, NSG mice; conditions: COG-N-496x PDX; 20 mg/kg i.v. twice weekly
Experimental: All animal studies were performed in accordance with the guidelines approved by University of New South Wales Animal Care and Ethics Committee (ACEC 17/53B) and in accordance with the requirements of the Australian Code for the Care and Use of Animals for Scientific Purposes. PDX models COG-N-440x and COG-N-496x were obtained from the Childhood Cancer Repository, Texas Tech University Health Sciences Center in Lubbock, TX, USA. 6–8 week old female NSG mice were engrafted by subcutaneous injection with 1 × 10^6 freshly thawed PDX tumor cells into one flank in a mixture of 100 μl RPMI-1640 and 100 μl Matrigel. Mice were monitored for tumor development three times weekly and tumor size measured using digital Vernier calipers. Treatments commenced when tumors reached 50 mm^3, following randomization into treatment arms. […] Mice were treated with either vincristine (0.5 mg/kg, once weekly i.p. in sterile saline for up to 5 weeks), WEHI-7326 (20 mg/kg; twice weekly i.v. in sterile saline for up to 5 weeks) or vehicle (as for WEHI-7326). For the Th-MYCN transgenic mouse model, spontaneous tumor growth in mice homozygous for the MYCN transgene was assessed by abdominal palpation at least twice a week. Treatments commenced once a small palpable tumor (~5 mm) was detected, following randomization to treatment arms. Mice were euthanized upon detection of an abdominal tumor of ~1 cm in diameter. […]

[2] = Metabolic stability in liver microsomes and cryopreserved hepatocytes; format: in vitro ADME; conditions: human, rat and mouse liver microsomes and cryopreserved hepatocytes
Source text: a Measured physicochemical and solubility data for WEHI-7326. […] Microsomal-predicted EH values are included.

[3] = system: LIM2537 (colon carcinoma) xenograft; assay: LIM2537 tumor xenograft in nude mice; format: in vivo, BALB/c nude mice; conditions: i.p. three times weekly
Experimental: Tumor cell lines LIM2537, U87MGΔ2–7EGFR or H1437 were collected by trypsinization, counted and injected at 5 × 10^6 cells/ site subcutaneously on both flanks of BALB/c nude mice. Treatment with vehicle control or WEHI-7326 at given dose was initiated after 5 days. Drug or vehicle (100 μl) was injected intraperitoneally three times weekly. Control group and treatment group consisted of 8 mice each. Tumors were measured twice weekly with calipers. Tumor volumes were estimated using the modified ellipsoid formula V = 1/2 (length × width^2). The experiments were terminated when tumors in the control group started ulcerating or exceeded 17 mm in length, in line with the LICR/DoS Animal Ethics Committee guidelines (11/05 A).

[4] = HepG2 cytotoxic assay; format: cell-based; conditions: human; HepG2 cells, cell viability after 48 h
Experimental: a Chemical structures of the triazine-based anti-mitotics used in this study. b Dose-dependent antiproliferative activity of key derivatives and comparison with commonly used anti-mitotics in SW480 cell line: Data shown is cell viability (as measured by CellTiterGlo) after 72 h relative to untreated control cells. Shown is mean of 3 independent experiments performed in duplicate +/- SEM. c Dose-dependent cell cycle analysis of key derivatives of WEHI-7326 development in SW480 cell line. Data are presented as percentage of cells in G2/M or subG0 after 24 h incubation with titration of inhibitors as assessed by PI staining and flow cytometry. Mean average of 3 experiments +/- SEM. d Comparison of IC50 and EC50 values of triazine compounds and anti-mitotic drugs in SW480 cell line: inhibition of cellular proliferation and cell cycle arrest in G2/M. IC50 and EC50 values are the mean of 3 independent experiments run in duplicates +/- SEM (n.d. = not determined). e HepG2 cytotoxic assay: cell viability assay after 48 h, normalised to 0.4% DMSO (100% viability) and 2 μM bortezomib (0% viability). The data is the mean average of 2 experiments +/- SD.

[5] = system: tubulin in SW480 cells; assay: Tubulin polymerization in cells (polymerized vs soluble, western blot); format: cell-based, human; conditions: 100 nM, overnight, vs control cells
Experimental: Cells incubated with control or with inhibitors were lysed in hypotonic buffer (1 mM MgCl2/2 mM EGTA/0.5% Nonidet P-40/20 mM Tris·HCl, pH 6.8 with the addition of complete protease inhibitor cocktail). The lysates were centrifuged at 14,000 rpm for 10 min at RT. Supernatants (containing soluble tubulin) and pellets (containing polymerized tubulin) were separated and each sample was brought to an equal volume with hypotonic buffer. Proteins were resolved by SDS/PAGE on 4–12% gels (Invitrogen, Carlsbad, CA), transferred to nitrocellulose and immunoblotted with an antibody against tubulin followed by fluorescent secondary antibody. Immunoreactive bands were detected using an Odyssey photometer (Li-Cor, Lincoln, NB).

COc1ccc(CNc2nc(NCc3ccc(CN)cc3)nc(NN3CC(=O)NC3=O)n2)cc1 [WEHI-7326]
Median survival [1]: 25 days
Rate of metabolism [2]: low rates of metabolism
Tumor growth [3]: effective in reducing tumor growth
IC50 at 48 h [4]: > 40 µM
Change in ratio of polymerized to soluble tubulin [5]: no significant change
